Laboratory results published in patent US10392383B2, “3-(1H-benzo[d]imidazol-2-yl)-1H-pyrazolo[4,3-b]pyridines and therapeutic uses thereof” (Samumed, LLC, priority 2015, dated 2019).

Columns and labels:
SW480 colon cancer cells = test: Cell viability assay (CellTiter-Blue) in SW480 cells; type: cell-based; conditions: Homo sapiens, 96 h, four days; for inhibition at 10 µM: read-out: percent inhibition at 10 μM (given for EC50 of >10 μM); for EC50: CellTiter-Blue, 10 μM to 0.0045 μM
Method in brief: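 Approximately 2×10^3 SW480 cells per well are seeded with compound (8 points, threefold steps, top 10 μM) and incubated four days at 37 °C. CellTiter-Blue is then added for about 3 h and fluorescence read. Non-linear regression gives EC50; for values beyond 10 μM, percent inhibition at that concentration is listed.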

[1] = system: primary human fibroblasts derived from IPF patients (LL29 cells) treated with TGF-β1; test: Inhibition of the fibrotic process: αSMA staining in TGF-β1-treated LL29 fibroblasts; type: cell-based; conditions: Fibroblast, 96 h, LL29 fibroblasts treated with TGF-β1 (20 ng/mL), 4 days, Table 4
Method in brief: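 IPF-derived LL29 fibroblasts in F12 with 1% FBS dosed with compound (11-point, 10 μM to 1.87 nM, 0.1% DMSO), then 20 ng/mL TGF-β1 after 1 h, and cultured 4 days at 37 °C. αSMA-positive cell fraction imaged after excluding SYTOX-positive cells, normalized to TGF-β1/DMSO wells; EC50 by non-linear regression, % inhibition at 10 μM if EC50 >10 μM.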

| EC50 (SW480 colon cancer cells) | Structure (SMILES) | inhibition at 10 µM (SW480 colon cancer cells) | EC50 [1] |
| --- | --- | --- | --- |
| > 10 µM | Fc1cccc(-c2cccc3[nH]c(-c4n[nH]c5ccc(-c6ccncc6)nc45)nc23)c1 [Compound 18, 3-(4-(3-Fluorophenyl)-1H-benzo[d]imidazol-2-yl)-5-(pyridin-4-yl)-1H-pyrazolo[4,3-b]pyridine] | 0% | 0.231 µM |
| 8.14 µM | CS(=O)(=O)NCc1cc(F)cc(-c2cccc3[nH]c(-c4n[nH]c5ccc(-c6cncnc6)nc45)nc23)c1 [Compound 503, N-(3-Fluoro-5-(2-(5-(pyrimidin-5-yl)-1H-pyrazolo[4,3-b]pyridin-3-yl)-1H-benzo[d]imidazol-4-yl)benzyl)methanesulfonamide] |  | 5 µM |
| > 10 µM | CC(C)CC(=O)Nc1cncc(-c2ccc3[nH]nc(-c4nc5c(-c6cccc(F)c6)cccc5[nH]4)c3n2)c1 [Compound 2, N-(5-(3-(4-(3-Fluorophenyl)-1H-benzo[d]imidazol-2-yl)-1H-pyrazolo[4,3-b]pyridin-5-yl)pyridin-3-yl)-3-methylbutanamide] | 14.2% | 9.86 µM |
| 1.51 µM | Cc1cn(-c2cccc3[nH]c(-c4n[nH]c5ccc(-c6cncc(NC(=O)C(C)(C)C)c6)nc45)nc23)cn1 [Compound 204, N-(5-(3-(4-(4-Methyl-1H-imidazol-1-yl)-1H-benzo[d]imidazol-2-yl)-1H-pyrazolo[4,3-b]pyridin-5-yl)pyridin-3-yl)pivalamide] |  | 0.997 µM |
| 2.74 µM | CN(C)CCNc1cc(F)cc(-c2cccc3[nH]c(-c4n[nH]c5ccc(-c6cncc(CNCC7CCCC7)c6)nc45)nc23)c1 [Compound 473, N^1-(3-(2-(5-(5-(((Cyclopentylmethyl)amino)methyl)pyridin-3-yl)-1H-pyrazolo[4,3-b]pyridin-3-yl)-1H-benzo[d]imidazol-4-yl)-5-fluorophenyl)-N^2,N^2-dimethylethane-1,2-diamine] |  | 1.45 µM |
| 3.1 µM | CS(=O)(=O)NCc1cc(F)cc(-c2cccc3[nH]c(-c4n[nH]c5ccc(-c6cncc(CNCc7ccccc7)c6)nc45)nc23)c1 [Compound 500, N-(3-(2-(5-(5-((Benzylamino)methyl)pyridin-3-yl)-1H-pyrazolo[4,3-b]pyridin-3-yl)-1H-benzo[d]imidazol-4-yl)-5-fluorobenzyl)methanesulfonamide] |  | 2.21 µM |
| 2.69 µM | c1cc(N2CCCCC2)c2nc(-c3n[nH]c4ccc(-c5cncc(OCCN6CCCC6)c5)nc34)[nH]c2c1 [Compound 610, 3-(4-(Piperidin-1-yl)-1H-benzo[d]imidazol-2-yl)-5-(5-(2-(pyrrolidin-1-yl)ethoxy)pyridin-3-yl)-1H-pyrazolo[4,3-b]pyridine] |  | 1.97 µM |
| 1.14 µM | Oc1cncc(-c2ccc3[nH]nc(-c4nc5c(-c6cccnc6)cccc5[nH]4)c3n2)c1 [Compound 565, 5-(3-(4-(Pyridin-3-yl)-1H-benzo[d]imidazol-2-yl)-1H-pyrazolo[4,3-b]pyridin-5-yl)pyridin-3-ol] |  | 1.73 µM |
